Laboratory results taken from ChEMBL document CHEMBL5291721, “A preclinical secondary pharmacology resource illuminates target-adverse drug reaction associations of marketed drugs” (Nat Commun, 2023).

Columns and labels:
[1] = target: T1, Adenosine receptor A1 (Homo sapiens, UniProt P30542)
T1 sequence (P30542 whole entry): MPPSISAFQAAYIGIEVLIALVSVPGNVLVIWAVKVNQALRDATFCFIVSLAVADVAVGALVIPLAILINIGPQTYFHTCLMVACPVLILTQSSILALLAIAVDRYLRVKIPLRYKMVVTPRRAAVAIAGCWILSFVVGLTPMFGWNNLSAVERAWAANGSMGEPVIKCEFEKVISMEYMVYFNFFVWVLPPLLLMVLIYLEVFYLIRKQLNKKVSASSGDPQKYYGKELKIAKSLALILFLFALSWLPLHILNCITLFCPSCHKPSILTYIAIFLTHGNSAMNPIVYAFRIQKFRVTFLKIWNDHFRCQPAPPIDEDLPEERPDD

[2] = target: Voltage-dependent L-type calcium channel subunit alpha-1C (Rattus norvegicus, UniProt P22002); type: functional
Voltage-dependent L-type calcium channel subunit alpha-1C, sequence (P22002 whole entry): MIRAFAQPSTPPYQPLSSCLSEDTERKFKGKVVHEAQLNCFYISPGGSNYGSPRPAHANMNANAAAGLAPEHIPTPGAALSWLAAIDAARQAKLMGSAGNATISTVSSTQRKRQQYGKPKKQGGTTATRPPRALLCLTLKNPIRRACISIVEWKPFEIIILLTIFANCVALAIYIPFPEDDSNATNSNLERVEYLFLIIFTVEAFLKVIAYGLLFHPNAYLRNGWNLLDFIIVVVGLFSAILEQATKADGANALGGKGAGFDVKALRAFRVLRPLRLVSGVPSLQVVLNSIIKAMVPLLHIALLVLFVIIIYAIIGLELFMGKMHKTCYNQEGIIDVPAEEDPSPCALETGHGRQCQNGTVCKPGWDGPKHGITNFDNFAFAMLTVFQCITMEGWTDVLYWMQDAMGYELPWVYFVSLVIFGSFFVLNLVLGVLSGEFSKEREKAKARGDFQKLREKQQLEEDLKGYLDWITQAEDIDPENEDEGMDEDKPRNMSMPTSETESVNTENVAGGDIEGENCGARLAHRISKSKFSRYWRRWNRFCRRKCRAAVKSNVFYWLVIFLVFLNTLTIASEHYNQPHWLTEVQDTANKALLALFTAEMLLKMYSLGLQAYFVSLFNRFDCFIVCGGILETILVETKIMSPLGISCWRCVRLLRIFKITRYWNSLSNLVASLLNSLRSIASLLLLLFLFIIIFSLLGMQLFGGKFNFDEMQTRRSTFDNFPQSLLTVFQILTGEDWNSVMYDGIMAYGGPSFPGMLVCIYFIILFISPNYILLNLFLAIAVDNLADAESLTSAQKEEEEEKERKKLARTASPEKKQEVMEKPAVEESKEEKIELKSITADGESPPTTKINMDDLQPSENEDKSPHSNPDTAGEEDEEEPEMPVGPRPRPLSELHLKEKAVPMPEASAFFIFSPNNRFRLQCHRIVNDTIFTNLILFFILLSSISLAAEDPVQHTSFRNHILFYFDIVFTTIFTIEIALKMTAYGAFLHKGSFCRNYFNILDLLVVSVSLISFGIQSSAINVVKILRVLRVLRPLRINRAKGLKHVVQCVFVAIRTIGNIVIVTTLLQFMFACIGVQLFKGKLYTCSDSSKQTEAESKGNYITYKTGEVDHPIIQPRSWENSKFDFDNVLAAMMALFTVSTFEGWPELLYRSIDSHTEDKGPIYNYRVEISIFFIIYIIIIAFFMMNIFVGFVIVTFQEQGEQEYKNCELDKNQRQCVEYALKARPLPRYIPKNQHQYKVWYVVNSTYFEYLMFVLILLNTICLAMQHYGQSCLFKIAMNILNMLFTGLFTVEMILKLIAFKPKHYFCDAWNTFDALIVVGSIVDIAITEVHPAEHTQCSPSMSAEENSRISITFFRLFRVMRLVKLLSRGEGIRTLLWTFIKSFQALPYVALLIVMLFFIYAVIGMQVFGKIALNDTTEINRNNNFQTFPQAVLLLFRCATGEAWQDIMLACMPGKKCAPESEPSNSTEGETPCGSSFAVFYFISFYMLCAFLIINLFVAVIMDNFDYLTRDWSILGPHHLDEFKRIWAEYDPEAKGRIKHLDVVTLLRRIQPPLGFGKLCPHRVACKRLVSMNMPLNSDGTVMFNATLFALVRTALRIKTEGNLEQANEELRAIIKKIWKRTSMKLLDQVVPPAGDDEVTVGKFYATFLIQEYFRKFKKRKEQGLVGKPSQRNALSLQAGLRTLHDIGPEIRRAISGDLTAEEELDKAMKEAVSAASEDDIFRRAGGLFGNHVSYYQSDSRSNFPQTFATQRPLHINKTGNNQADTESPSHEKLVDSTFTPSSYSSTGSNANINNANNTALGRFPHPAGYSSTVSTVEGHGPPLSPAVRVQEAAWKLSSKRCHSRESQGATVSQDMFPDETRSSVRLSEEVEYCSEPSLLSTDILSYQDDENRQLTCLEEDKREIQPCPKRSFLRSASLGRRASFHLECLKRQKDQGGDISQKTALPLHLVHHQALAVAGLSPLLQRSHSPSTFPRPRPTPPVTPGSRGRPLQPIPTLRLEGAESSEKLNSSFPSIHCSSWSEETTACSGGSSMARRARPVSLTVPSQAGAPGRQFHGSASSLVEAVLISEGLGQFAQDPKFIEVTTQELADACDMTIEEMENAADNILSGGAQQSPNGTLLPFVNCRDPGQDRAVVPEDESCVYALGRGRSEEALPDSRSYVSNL

[3] = target: T2, Type-1 angiotensin II receptor (Homo sapiens, UniProt P30556)
T2 sequence (P30556 whole entry): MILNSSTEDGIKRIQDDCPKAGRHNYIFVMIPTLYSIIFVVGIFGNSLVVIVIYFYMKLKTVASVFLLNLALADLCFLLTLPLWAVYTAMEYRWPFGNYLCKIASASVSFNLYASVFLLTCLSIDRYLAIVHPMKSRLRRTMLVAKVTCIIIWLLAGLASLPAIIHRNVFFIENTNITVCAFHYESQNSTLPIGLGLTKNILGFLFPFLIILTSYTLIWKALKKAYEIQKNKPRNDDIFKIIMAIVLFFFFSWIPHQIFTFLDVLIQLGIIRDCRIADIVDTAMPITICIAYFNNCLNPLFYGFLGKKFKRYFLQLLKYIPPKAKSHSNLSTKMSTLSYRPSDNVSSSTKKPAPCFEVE

[4] = target: Melanocortin receptor 3 (Homo sapiens, UniProt P41968)
Melanocortin receptor 3, sequence (P41968 whole entry): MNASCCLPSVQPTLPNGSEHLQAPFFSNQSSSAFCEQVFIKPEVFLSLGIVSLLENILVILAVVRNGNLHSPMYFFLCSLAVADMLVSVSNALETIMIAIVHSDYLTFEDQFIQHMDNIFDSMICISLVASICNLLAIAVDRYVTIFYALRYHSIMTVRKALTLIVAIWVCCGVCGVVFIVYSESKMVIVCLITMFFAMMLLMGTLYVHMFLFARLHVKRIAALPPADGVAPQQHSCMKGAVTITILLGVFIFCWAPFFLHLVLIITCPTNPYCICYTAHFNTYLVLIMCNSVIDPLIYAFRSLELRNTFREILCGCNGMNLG

[5] = target: cGMP-inhibited 3',5'-cyclic phosphodiesterase 3A (Homo sapiens, UniProt Q14432); type: functional
cGMP-inhibited 3',5'-cyclic phosphodiesterase 3A, sequence (Q14432 whole entry): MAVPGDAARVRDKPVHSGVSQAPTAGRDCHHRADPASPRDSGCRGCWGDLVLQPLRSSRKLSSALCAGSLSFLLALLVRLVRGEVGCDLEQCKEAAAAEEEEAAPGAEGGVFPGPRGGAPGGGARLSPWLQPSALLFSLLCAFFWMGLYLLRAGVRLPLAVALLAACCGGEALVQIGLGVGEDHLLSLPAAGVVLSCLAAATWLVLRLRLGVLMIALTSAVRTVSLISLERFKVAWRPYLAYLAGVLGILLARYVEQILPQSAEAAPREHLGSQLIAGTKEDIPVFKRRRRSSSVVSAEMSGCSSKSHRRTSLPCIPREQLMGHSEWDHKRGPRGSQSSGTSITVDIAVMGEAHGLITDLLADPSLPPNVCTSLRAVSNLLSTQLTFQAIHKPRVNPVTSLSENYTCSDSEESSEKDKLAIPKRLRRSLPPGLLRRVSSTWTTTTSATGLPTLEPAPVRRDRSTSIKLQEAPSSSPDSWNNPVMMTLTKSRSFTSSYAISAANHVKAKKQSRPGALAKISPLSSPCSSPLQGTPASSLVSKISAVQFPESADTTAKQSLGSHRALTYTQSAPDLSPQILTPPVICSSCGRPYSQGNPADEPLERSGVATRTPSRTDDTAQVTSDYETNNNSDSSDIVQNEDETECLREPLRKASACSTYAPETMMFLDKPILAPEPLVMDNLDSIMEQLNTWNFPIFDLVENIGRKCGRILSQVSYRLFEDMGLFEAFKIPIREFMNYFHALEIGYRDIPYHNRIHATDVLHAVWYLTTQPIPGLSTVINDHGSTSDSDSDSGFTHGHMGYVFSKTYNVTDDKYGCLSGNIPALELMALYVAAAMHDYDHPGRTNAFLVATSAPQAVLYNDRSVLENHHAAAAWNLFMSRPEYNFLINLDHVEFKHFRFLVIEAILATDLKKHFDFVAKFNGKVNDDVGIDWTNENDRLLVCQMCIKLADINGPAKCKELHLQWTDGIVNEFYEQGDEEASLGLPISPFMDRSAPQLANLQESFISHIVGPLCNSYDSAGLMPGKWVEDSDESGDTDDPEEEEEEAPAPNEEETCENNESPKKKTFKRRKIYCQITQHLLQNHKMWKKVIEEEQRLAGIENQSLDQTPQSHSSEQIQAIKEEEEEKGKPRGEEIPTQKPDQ

[6] = target: Beta-2 adrenergic receptor (Homo sapiens, UniProt P07550)
Beta-2 adrenergic receptor, sequence (P07550 whole entry): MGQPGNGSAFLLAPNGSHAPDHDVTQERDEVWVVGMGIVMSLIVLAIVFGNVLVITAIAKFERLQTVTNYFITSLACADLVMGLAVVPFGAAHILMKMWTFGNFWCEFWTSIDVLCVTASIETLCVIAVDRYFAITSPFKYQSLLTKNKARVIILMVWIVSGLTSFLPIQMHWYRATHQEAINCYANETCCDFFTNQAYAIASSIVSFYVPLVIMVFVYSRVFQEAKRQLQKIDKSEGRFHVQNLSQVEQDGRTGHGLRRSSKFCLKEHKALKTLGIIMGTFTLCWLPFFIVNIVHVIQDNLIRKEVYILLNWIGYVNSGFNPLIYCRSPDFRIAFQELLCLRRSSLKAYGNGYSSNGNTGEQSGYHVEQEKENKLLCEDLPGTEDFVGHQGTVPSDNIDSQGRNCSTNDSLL

[7] = target: Glutamate receptor ionotropic, NMDA 1 (Rattus norvegicus, UniProt P35439)
[8] = target: T3, Alpha-2A adrenergic receptor (Homo sapiens, UniProt P08913); type: functional, cell-based
T3 sequence (P08913 whole entry): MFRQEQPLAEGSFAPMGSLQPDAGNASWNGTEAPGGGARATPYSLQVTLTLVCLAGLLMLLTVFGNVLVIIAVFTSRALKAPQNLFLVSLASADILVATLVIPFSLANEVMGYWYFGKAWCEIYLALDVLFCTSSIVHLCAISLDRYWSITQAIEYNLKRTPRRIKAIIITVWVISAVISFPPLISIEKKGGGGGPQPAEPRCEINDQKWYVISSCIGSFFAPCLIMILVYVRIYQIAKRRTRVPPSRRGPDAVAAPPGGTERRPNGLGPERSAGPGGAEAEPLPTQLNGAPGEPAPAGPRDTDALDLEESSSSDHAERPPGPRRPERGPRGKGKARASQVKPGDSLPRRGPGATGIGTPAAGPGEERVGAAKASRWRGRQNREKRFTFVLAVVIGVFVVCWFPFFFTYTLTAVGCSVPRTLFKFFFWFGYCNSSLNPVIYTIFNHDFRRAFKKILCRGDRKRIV

[9] = target: T4, Progesterone receptor (Homo sapiens, UniProt P06401); type: functional
T4 sequence (P06401 whole entry): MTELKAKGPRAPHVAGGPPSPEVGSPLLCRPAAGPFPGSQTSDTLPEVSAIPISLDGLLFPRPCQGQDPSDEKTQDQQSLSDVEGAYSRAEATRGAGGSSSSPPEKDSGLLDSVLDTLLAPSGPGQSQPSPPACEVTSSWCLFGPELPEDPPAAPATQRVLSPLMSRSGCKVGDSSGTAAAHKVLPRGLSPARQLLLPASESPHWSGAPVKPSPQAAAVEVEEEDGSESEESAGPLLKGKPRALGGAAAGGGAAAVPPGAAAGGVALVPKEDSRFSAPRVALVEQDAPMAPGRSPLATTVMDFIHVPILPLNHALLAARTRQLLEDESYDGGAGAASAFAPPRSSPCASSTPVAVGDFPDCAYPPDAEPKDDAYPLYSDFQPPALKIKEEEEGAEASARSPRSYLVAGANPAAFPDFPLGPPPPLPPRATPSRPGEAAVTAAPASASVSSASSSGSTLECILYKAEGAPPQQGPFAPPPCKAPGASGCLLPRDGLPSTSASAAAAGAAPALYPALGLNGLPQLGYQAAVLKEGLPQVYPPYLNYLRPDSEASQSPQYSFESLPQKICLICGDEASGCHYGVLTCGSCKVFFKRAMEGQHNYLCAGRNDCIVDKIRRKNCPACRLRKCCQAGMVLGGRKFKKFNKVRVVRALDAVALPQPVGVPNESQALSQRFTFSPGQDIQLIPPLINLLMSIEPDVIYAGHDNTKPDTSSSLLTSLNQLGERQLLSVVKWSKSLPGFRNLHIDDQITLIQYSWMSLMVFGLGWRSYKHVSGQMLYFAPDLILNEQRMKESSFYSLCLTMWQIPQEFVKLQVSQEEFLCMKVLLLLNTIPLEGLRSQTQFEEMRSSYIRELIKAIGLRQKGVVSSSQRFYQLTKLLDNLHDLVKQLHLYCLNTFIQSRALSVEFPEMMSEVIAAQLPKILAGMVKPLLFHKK

[10] = target: T5, Muscarinic acetylcholine receptor M2 (Homo sapiens, UniProt P08172); type: functional, cell-based
T5 sequence (P08172 whole entry): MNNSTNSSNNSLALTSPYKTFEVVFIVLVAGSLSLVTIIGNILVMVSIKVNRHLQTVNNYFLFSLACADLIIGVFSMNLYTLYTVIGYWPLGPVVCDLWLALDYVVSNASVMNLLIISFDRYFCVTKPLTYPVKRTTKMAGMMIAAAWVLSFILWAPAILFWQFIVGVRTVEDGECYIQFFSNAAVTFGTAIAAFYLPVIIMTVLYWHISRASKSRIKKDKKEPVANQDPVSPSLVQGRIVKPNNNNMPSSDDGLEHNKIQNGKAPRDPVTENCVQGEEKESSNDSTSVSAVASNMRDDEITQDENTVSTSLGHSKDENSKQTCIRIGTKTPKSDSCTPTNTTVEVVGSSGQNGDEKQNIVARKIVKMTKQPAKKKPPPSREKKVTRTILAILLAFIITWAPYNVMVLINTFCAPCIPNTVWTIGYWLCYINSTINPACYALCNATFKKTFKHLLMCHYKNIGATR
Also: assay procedure not described here.

Row | Structure (SMILES) | AC50 [1] [µM] | AC50 [2] [µM] | AC50 [3] [µM] | AC50 [4] [µM] | AC50 [5] [µM] | AC50 [6] [µM] | AC50 [7] [µM] | AC50 [8] [µM] | AC50 [9] [µM] | AC50 [10] [µM]
1 | CCCCCCCC(=O)N[C@H](CN1CCCC1)[C@H](O)c1ccc2c(c1)OCCO2 | > 30 |  |  |  |  |  |  |  |  | 
2 | C[C@]1(COc2ccc(N3CCC(Oc4ccc(OC(F)(F)F)cc4)CC3)cc2)Cn2cc([N+](=O)[O-])nc2O1 | > 30 | > 10 | > 30 | > 30 | > 30 | > 10 | > 10 |  |  | 
3 | CC(=O)OCC[N+](C)(C)C [ACETYLCHOLINE] | > 30 | > 10 | > 30 | > 30 | > 30 | > 30 | > 10 | > 10 | 29 | 
4 | O=C(Nc1nc(-c2cc(Cl)cs2)c(N2CCN(C3CCCCC3)CC2)s1)c1cnc(N2CCC(C(=O)O)CC2)c(Cl)c1 [AVATROMBOPAG] | > 30 | > 10 | > 10 | > 10 | > 10 | > 10 | > 10 |  |  | 
5 | C[C@@H](O)[C@H]1C(=O)N2C(C(=O)[O-])=C(SC3Cn4cnc[n+]4C3)[C@H](C)[C@H]12 (stereo partly drawn) [BIAPENEM] | > 30 |  |  |  |  |  |  |  |  | 
6 | Cc1nnc(SCC2=C(C(=O)O)N3C(=O)[C@@H](NC(=O)Cn4cc(Cl)c(=O)c(Cl)c4)[C@H]3SC2)s1 [CEFAZEDONE] | > 30 |  |  |  |  |  |  |  |  | 
7 | CO[C@@]1(NC(=O)CSCC#N)C(=O)N2C(C(=O)O)=C(CSc3nnnn3C)CS[C@@H]21 [CEFMETAZOLE] | > 30 |  |  |  | > 30 |  | > 30 | > 30 |  | > 30
8 | CO/N=C(\C(=O)N[C@@H]1C(=O)N2C(C(=O)[O-])=C(C[n+]3cccc4c3CCC4)CS[C@H]12)c1csc(N)n1 [CEFPIROME] | > 30 |  |  |  | > 30 |  | > 30 | > 30 |  | > 30
9 | CC[C@H]1OC(=O)[C@H](C)[C@@H](O[C@H]2C[C@@](C)(OC)[C@@H](O)[C@H](C)O2)[C@H](C)[C@@H](O[C@@H]2O[C@H](C)C[C@H](N(C)C)[C@H]2O)[C@](C)(OC)C[C@@H](C)C(=O)[C@H](C)[C@@H](O)[C@]1(C)O [CLARITHROMYCIN] | > 30 |  | > 30 | > 30 | > 30 |  |  | > 30 | > 30 | > 30
10 | Oc1c(I)cc(Cl)c2cccnc12 [CLIOQUINOL] | > 30 |  |  |  | > 30 |  | 13 | > 30 |  | 
11 | O=C(CCCN1CC=C(n2c(=O)[nH]c3ccccc32)CC1)c1ccc(F)cc1 [DROPERIDOL] | > 30 |  |  |  |  |  |  |  |  | 
12 | Nc1nc(N)nc(Nc2ccc([As]3SCC(CO)S3)cc2)n1 (stereo not drawn) [MELARSOPROL] | > 30 |  |  |  |  |  |  |  |  | 
13 | C#C[C@]1(O)CC[C@H]2[C@@H]3CCc4cc(OC)ccc4[C@H]3CC[C@@]21C [MESTRANOL] |  | > 10 | > 10 | > 10 | > 30 | > 10 | > 10 | > 10 | 0.096 | > 10
14 | CCC(=O)O[C@@H]1CC(=O)O[C@H](C)C/C=C/C=C/[C@H](OC(C)=O)[C@H](C)C[C@H](CC=O)[C@H](O[C@@H]2O[C@H](C)[C@@H](O[C@H]3C[C@@](C)(OC(C)=O)[C@@H](OC(=O)CC)[C@H](C)O3)[C@H](N(C)C)[C@H]2O)[C@H]1OC [MIOCAMYCIN] | > 30 |  |  |  |  |  |  |  |  | 
15 | CNC(=O)Oc1ccc2c(c1)[C@]1(C)CCN(C)[C@@H]1N2C [PHYSOSTIGMINE] |  | > 30 | > 30 | > 30 | > 30 | > 30 | > 30 | > 30 | > 30 | > 30
16 | C1CNCCN1 [PIPERAZINE] | > 30 |  |  |  |  |  |  |  |  | 
17 | O=C(O)c1cc(O)c2c3nc4ccccc4oc-3cc(=O)c2n1 [PIRENOXINE] |  | 0.72 | > 30 | > 30 | > 30 | > 30 | > 30 | > 30 | > 30 | > 30
18 | NS(=O)(=O)c1cc(C(=O)O)cc(N2CCCC2)c1Oc1ccccc1 [PIRETANIDE] |  | > 30 | > 30 | > 30 | > 30 | > 30 | > 30 | > 30 | > 30 | > 30
19 | COCCCOc1ccnc(C[S+]([O-])c2nc3ccccc3[nH]2)c1C (stereo not drawn) [RABEPRAZOLE] | > 30 | > 10 | > 30 | > 30 | > 30 | > 10 | > 10 | > 10 |  | > 10
20 | CC(C)=CCOc1ccc(/C=C/C(=O)c2ccc(OCC=C(C)C)cc2OCC(=O)O)cc1 [SOFALCONE] |  | > 30 | 7.5 | > 30 | > 30 | 22 | > 30 | > 30 | > 30 | > 30
21 | CN(C)c1cc(NC(=O)CNC(C)(C)C)c(O)c2c1C[C@H]1C[C@H]3[C@H](N(C)C)C(O)=C(C(N)=O)C(=O)[C@@]3(O)C(O)=C1C2=O [TIGECYCLINE] |  | > 30 | > 30 | > 30 | > 30 | > 30 | > 30 | > 30 | > 30 | > 30
22 | OCCN1CCN(CC/C=C2/c3ccccc3Sc3ccc(Cl)cc32)CC1 [ZUCLOPENTHIXOL] |  | > 10 | > 30 | > 10 | > 30 | > 10 | > 10 | 7.3 | > 10 | > 10
